According to US10307383B2, “Cosmetic composition for preventing or ameliorating hypersensitive skin comprising cedrol or derivatives thereof, or pharmaceutically acceptable salts thereof” (University of Seoul Industry Cooperation Foundation, priority 2017, dated 2019):

Tests used:
Format in all cases: in vivo, Balb/c mouse
[1] = tested on: psoriasis induced mice (imiquimod); assay: Cumulative score of PASI for ear thickness, keratosis and skin flair (development phase); conditions: 100 mg/kg oral, 7 days, IMQ applied
Description: (§1) To investigate the delayed effect of cedrol, cedryl acetate, and alpha-cedrene on the development of psoriasis, total 5 groups of mice were prepared (8 mice/group). First, the hair of the entire back of the 8-week-old male Balb/c mouse whose immune system was weakened was removed by using a hair clipper (Kimlaube Hair pen 325,327, Rikei, Korea). In the middle of the shaved back of the mouse, 2 mg of imiquimod (3M Health Care Limited, England) was applied in the area of 2 cm×1.5 cm and also 1,125 mg of imiquimod was applied on the right ear of the mouse every day once a day to induce psoriasis.
The mice prepared above were divided into the distilled water treated group (IMQ), the cedrol treated group (C), the cedryl acetate treated group (CA), and the alpha-cedrene treated group (CE). At this time, the mice were orally treated with distilled water at the concentration of 200 μl/mouse and cedrol or its derivatives at the concentration of 200 μl/mouse (100 mg/kg). The day when distilled water or the compound administration started was recorded as day 0 and the administration was performed once a day for a week, during which photo-recording was performed every day (FIGS. 2A˜2D). In the meantime, instead of applying imiquimod, 40 mg of vaseline was applied on the back of the control group (CONT) and 22.5 mg of vaseline was applied on the right ear of the control group. […]

[2] = Weight changes in the psoriasis induced mice (oral administration during imiquimod application); conditions: 100 mg/kg oral once a day during application of IMQ; increase
Description: as §1
The mice prepared above were divided into the distilled water treated group (IMQ), the cedrol treated group (C), the cedryl acetate treated group (CA), and the alpha-cedrene treated group (CE). […] The day when distilled water or the compound administration started was recorded as day 0 and the administration was performed once a day for a week, during which photo-recording was performed every day (FIGS. 2A˜2D). […]
To compare the weight changes in the psoriasis induced mice according to the oral administration of cedrol, cedryl acetate, and alpha-cedrene of Example <2-1>, the weight of each mouse was measured at the same time every day for a week.

[3] = tested on: psoriasis induced mice (imiquimod); assay: Cumulative score of PASI for ear thickness, keratosis and skin flair (recovery phase); conditions: 100 mg/kg oral after termination of imiquimod
Description: Imiquimod was applied to the psoriasis induced mice which had developed psoriasis for a week in Example <2-1>. The application was stopped 8 days after the application began. The groups CON and IMQ were treated with distilled water, the group C was treated with cedrol, the group CA was treated with cedryl acetate, the group CE was treated with alpha-cedrene alone at the concentration of 100 mg/kg in 200 μl, every day via oral-administration. Day 8 was the day the imiquimod application was stopped, since then the compounds were administered for 1 week once a day, during which photo-recording was performed (FIGS. 13A˜13D).
The psoriasis area severity index obtained in Examples <3-2> and <3-4> was accumulated to compare the psoriasis area severity index for ear thickness, keratosis and skin flair of the mouse groups respectively treated with cedrol, cedryl acetate, and alpha-cedrene via oral-administration.

CC(=O)O[C@]1(C)CC[C@@]23C[C@@H]1C(C)(C)[C@@H]2CC[C@H]3C [cedryl acetate, Cedryl acetate]
cumulative PASI (ear thickness, keratosis, skin flair) reduction effect, in words [1]: strongest reduction effect at a similar level

C[C@@H]1CC[C@H]2C(C)(C)[C@H]3C[C@@]12CC[C@@]3(C)O [cedrol, Cedrol]
weight change for 7 days [2]: 0.025 g | cumulative PASI (ear thickness, keratosis, skin flair) recovery effect, in words [3]: strongest recovery effect

CC1=CC[C@@]23C[C@@H]1C(C)(C)[C@@H]2CC[C@H]3C [alpha-cedrene, Alpha-cedrene]
cumulative PASI (ear thickness, keratosis, skin flair) reduction effect, in words [1]: strongest reduction effect at a similar level
